The source of these data is EP1060748A1, “REMEDIES FOR CORNEAL EPITHELIUM DISTURBANCE” (Wakamoto Pharmaceutical Co., Ltd., priority 1998, dated 1999).

Counter-ions that a name gives are not always drawn.

In the experiment the test system is human corneal epithelial cell line HCEC. As to the kind of experiment: Protection against UV-C-induced human corneal epithelial cell damage, viable cell count. The experiment is classed as cell-based. To be noted: Table 8-2, UV-C 5 seconds. On the procedure:
Human corneal epithelial cell line HCEC was suspended in 10% fetal bovine serum-SHEM modified medium at a concentration of 1×10^5 cells/ml and 500 µl of this cell suspension was seeded into each well of a 24-multiwell plate (Corning). The cells were cultured in a 5% CO2 incubator at 37°C for 16 to 17 hours. Then, the culture supernatant was thoroughly removed and 500 µl of 10% fetal bovine serum-SHEM modified medium containing a test sample was added to each well. The cells were cultured under the same conditions as above for a further two hours. After completion of culture in contact with the sample, the culture supernatant was removed thoroughly so that there would be substantially no residue of the sample in the multiwell plate. The multiwell plate in this condition was irradiated with UV-C, the ultraviolet light with a maximum lethal power, at a distance of 20 to 30 cm for 5 seconds. After UV-C irradiation, 500 µl/well of 10% fetal bovine serum-SHEM modified medium containing the same sample as above was added again and the cells were cultured under the same conditions as above for 16 to 17 hours. Then, the supernatant was discarded from each well and 100 µl of an excision solution (PBS containing 0.25% trypsin (w/v) and 0.02% EDTA) was added. The plate was then incubated in a 5% CO2 incubator at 37 °C for 6 minutes. After this incubation, the viable epithelial cells were thoroughly detached and dispersed by pipetting and stained with 100 µl of 0.1% (w/v) trypan blue staining solution, and immediately the viable cells were counted with a hemocytometer. The protective effect of the sample against UV-induced human corneal epithelial cell damage was evaluated by the following computation. Protective effect (%) = (number of viable cells in sample-added group ÷ number of viable cells in sample-free group) × 100 [formula]

On to `CC(=O)N(O)CCCCCNC(=O)CCC(=O)N(O)CCCCCNC(=O)CCC(=O)N(O)CCCCCN` [Deferoxamine mesylate], for which, where the note is “2 mM”, the “Protective effect (%)” value worked out at 94%.
`N[C@@H](CCC(=O)N[C@@H](CS)C(=O)NCC(=O)O)C(=O)O` [Glutathione]: the “Protective effect (%)” value (2 mM) was determined as 95%.
On the same count and under the same terms, the same measure for `N[C@@H](CS)C(=O)O` [Cysteine]: 46%.
With `CC(=O)Oc1c(C)c(C)c2c(c1C)CCC(C)(CCCC(C)CCCC(C)CCCC(C)C)O2` (racemic) [Vitamin E, DL-α-tocopherol acetate], the “Protective effect (%)” value (20 µM) was determined as 107%.
Consider `O=C1O[C@H]([C@@H](O)CO)C(O)=C1O` [Vitamin C, ascorbic acid], for which the “Protective effect (%)” value (2 mM) turned out to be 104%.
